Assay results from ChEMBL document CHEMBL4699624, “Targeting Trimeric and Tetrameric Proanthocyanidins of Cinnamomum verum Bark as Bioactives for Dental Therapies” (J Nat Prod, 2020).
The source made the active and inactive calls. The rule behind the calls is not given here.

Key:
[1] = system: Hathewaya histolytica; test: Inhibition of Clostridium histolyticum collagenase-induced degradation of human molar dentin assessed as reduction in degradation after 24 hrs
[2] = system: Dentine; test: Induction of apparent modulus of elasticity in human molar dentine after 1 hr by bending method; type: functional, tissue-based

Question: For `Oc1cc(O)c2c(c1)O[C@@]1(c3ccc(O)c(O)c3)Oc3cc(O)c4c(c3[C@@H]2[C@H]1O)O[C@H](c1ccc(O)c(O)c1)[C@H](O)[C@H]4c1c(O)cc(O)c2c1O[C@H](c1ccc(O)c(O)c1)[C@H](O)C2`, which inhibition [1] is on record?
Answer: The inhibition was “Active”.

Question: And the Activity [2]?
Answer: Its Activity is “Active”.

Question: Which inhibition [1] does the source give for `Oc1cc(O)c2c(c1)O[C@@]1(c3ccc(O)c(O)c3)Oc3cc(O)c4c(c3[C@@H]2[C@H]1O)O[C@H](c1ccc(O)c(O)c1)[C@H](O)[C@H]4c1c(O)cc2c(c1O)[C@@H]1c3c(cc(O)c4c3O[C@H](c3ccc(O)c(O)c3)[C@@H](O)C4)O[C@](c3ccc(O)c(O)c3)(O2)[C@@H]1O` here?
Answer: Its inhibition is “Active”.

Question: What about the Activity [2] of the same compound?
Answer: Its Activity is “Active”.

Question: Which inhibition [1] does the source give for `Oc1cc(O)c2c(c1)O[C@H](c1ccc(O)c(O)c1)[C@H](O)[C@H]2c1c(O)c2c(c3c1O[C@]1(c4ccc(O)c(O)c4)Oc4cc(O)cc(O)c4[C@H]3[C@H]1O)O[C@H](c1ccc(O)c(O)c1)[C@H](O)[C@H]2c1c(O)cc(O)c2c1O[C@H](c1ccc(O)c(O)c1)[C@H](O)C2` here?
Answer: Its inhibition is “Active”.

Question: And the Activity [2]?
Answer: The Activity was “Active”.
